Laboratory results from patent US4150970A, “Growth regulator for plants” (Board of Trustees of Michigan State University, priority 1977, dated 1979).

Experiments:
rice = assay: Synthetic triacontanol on rice in nutrient cultures (Example III); assay type: in vivo; conditions: for Dry wt / Water Uptake: seven days
Protocol: Synthetic triacontanol in aqueous solution was applied to rice (4 replicates) in nutrient cultures and to "Chico III" tomatoes (6 replicates) grown in soil as previously described. The response of both rice and tomatoes to synthetic triacontanol after seven and six days respectively was similar to that of the natural triacontanol with the optimum rate at between 0.01 and 0.1 mg per liter, as summarized in the following table III:
^1 Treatments applied on filter paper, including control and placed i
nutrient solution. The solution was changed after 4 days. Seedlings
weighed 57 mg at initiation of test.

IR-8 rice seedlings [1] = assay: Dry weight and total protein of 18-day-old rice seedlings in light and dark for 24 hours (Examples X and XVII); assay type: in vivo; conditions: for Dry Wt, Entire Plant / Dry Wt, Expanded leaves / Dry Wt, Roots / Dry Wt, Sheaths: 24 hours
Protocol: (§1) Rice seed cv. IR-8, or Starbonnet was surface treated with 0.1 percent mercuric chloride and planted in 77 cc plastic cups containing vermiculite and watered with one-fourth Hoagland's nutrient solution containing 3 mM of nitrogen at pH 5.0. After 10 days, seedlings were transplanted to 220 cc specimen cups wrapped in aluminum foil and containing 180 cc of the same Hoagland's nutrient solution. Four seedlings were suspended in the solution with a sponge rubber disc. The plants were grown under a 8 h night at 25° C. and a 16 h day at 30° C. with 21 and 8 μwatts per cm^2 in the blue and red spectra respectively. In the test with varying light intensity the high light intensity was 30 13 and the low intensity was 15 and 8 μwatts per cm^2 for the blue and red spectra respectively. The nutrient solution was renewed every 2 or 3 days. After one week the plants were sorted for size and similar sized plants assigned to the same block for the experiment. Prior to the initiation of a test the plants in each cup were assigned treatment numbers by use of a random number table. […] Sixteen hours prior to a test the foil wrapped cups were tared, and filled with one-half Hoaglands solution containing 6 mM nitrogen. Eighteen μl of chloroform or chloroform containing 1.8 μg triacontanol were placed on 2 cm^2 of Whatman No. 1 filter papers, air dried and placed in the specimen cups. This concentration of 10 μg triacontanol/liter was used for all tests described in the following Examples except where specifically indicated to the contrary. Immediately prior to the test the cups were all brought up to 180 ml. including a set of cups without plants to measure evaporation.
Plants were placed in 20×32 cm glass jars fitted with gas inlet and outlet ports. Three jars containing 2 cups each were used for a total of 24 plants for each treatment. The plants were ventilated with air or freed of CO2 by passing it through ascarite and then humidified. The flow rate was approximately 300 ml/minute. Carbon dioxide-free air was also used to purge the appropriate jars during a two minute period required to place the plants in the jars. The N analyses were done by the automated micro-Kjelldahl procedure of Ferrari (1960).
Using the materials and procedures set forth above, dry weight and total protein (nitrogen) content of 18-day-old "IR-8" rice seedlings grown in light and dark for 24 hours with or without triacontanol was determined. Table X sets forth the results:
This example was run to determine the percent change in dry weight of whole 18-day-old "IR-8" rice seedlings treated with triacontanol in the light and dark over a 24 hour period expressed as percent change from zero time. The dry weight at zero time was 50.8 mg per seedling.

IR-8 rice seedlings [2] = assay: Total protein content of rice seedlings grown in the dark for six hours (Example VIII); assay type: in vivo
Protocol: as §1
Plants were placed in 20×32 cm glass jars fitted with gas inlet and outlet ports. Three jars containing 2 cups each were used for a total of 24 plants for each treatment. The plants were ventilated with air or freed of CO2 by passing it through ascarite and then humidified. The flow rate was approximately 300 ml/minute. […]
The total protein (nitrogen) content of 17 day old "IR-8" rice seedlings was determined, where […]

[3] = test system: Tomato callus cell culture; assay: Growth of tomato callus cell culture (Example XIX); assay type: cell-based, Lycopersicon esculentum, var. marglobe
Protocol: Cell cultures were separately grown in disposable petri dishes.
2. Tomato (Lycopersicon esculentum, var. marglobe)
The cultures were grown on the basic medium of mineral salts described by Linsmaier and Skoog (Physiol. Plant, […] (1965)). Vitamins and hormones varied for each tissue (Table X-1) to maintain the tissues in an undifferentiated state. For all of the tissues inositol was 100 mg/liter and agar 1%. Sucrose was 3% for all but the bean which was 2%.
Callus was produced from pith for tobacco, potato and tomato. Bean callus was produced from hypocotyl sections and barley callus from immature ovarian tissue. Subcultures were maintained on the appropriate media.
Stock solutions of triacontanol were prepared at a concentration of 100 μg/ml. The solvent used was glass distilled benzene. The lower concentrations were obtained by serial dilutions. Treatments were applied to 4.5 cm Whatman #1 filter paper disks in 100 μl aliquots. Controls received 100 μl of glass distilled benzene. The solvent was evaporated for approximately 15 minutes and the filter papers were then placed on the agar medium.
Callus tissue was then broken into pieces of approximately the same size (10 mg) and placed in the petri dishes on the treated filter paper (one piece per dish). For experiments conducted in the light the intensity was approximately 2.0 microwatts/cm^2 -namometer. Fresh weight measurements were made after 12 days of growth.

[4] = printed 10.0 g triacontanol, 12 days

With `CCCCCCCCCCCCCCCCCCCCCCCCCCCCCCO` [Triacontanol, 1-triacontanol] the Dry wt (rice; 0.001 mg/liter) was 103 mg/plant, the Water Uptake (rice; 0.001 mg/liter) was 37.0 g/plant and the Dry wt (rice; 0.010 mg/liter) was 107 mg/plant. The Water Uptake (rice; 0.010 mg/liter) was 38.8 g/plant, the Dry wt (rice; 0.100 mg/liter) was 106 mg/plant and the Water Uptake (rice; 0.100 mg/liter) was 39.0 g/plant. The Dry wt (rice; 1.000 mg/liter) was 91 mg/plant, the Water Uptake (rice; 1.000 mg/liter) was 33.4 g/plant and the minimal effective concentration (rice; Oryza sativa, soil, rice seedlings, nutrient cultures) was no less than 0.001 µg/mL. The “dry weight in the dark versus dark controls” value (IR-8 rice seedlings [1]; dark, 6- and 24-hour harvests) was “gained significantly more weight than the dark controls”, the “Dry Wt, Entire Plant” value (IR-8 rice seedlings [1]; dark) was 55.0 mg/plant and the “Dry Wt, Expanded leaves” value (IR-8 rice seedlings [1]; dark) was 22.0 mg/plant. For the same compound, the “Dry Wt, Roots” value (IR-8 rice seedlings [1]; dark) was 20.3 mg/plant, the “Dry Wt, Sheaths” value (IR-8 rice seedlings [1]; dark) was 12.8 mg/plant and the “Dry Wt, Entire Plant” value (IR-8 rice seedlings [1]; light) was 72.9 mg/plant. For the same compound, the “Dry Wt, Expanded leaves” value (IR-8 rice seedlings [1]; light) was 30.3 mg/plant, the “Dry Wt, Roots” value (IR-8 rice seedlings [1]; light) was 24.6 mg/plant and the “Dry Wt, Sheaths” value (IR-8 rice seedlings [1]; light) was 18.0 mg/plant. The “higher concentration of total protein in 4th leaf than the control” value (IR-8 rice seedlings [2]) was 11%, the “total increase in protein per plant versus zero time” value (IR-8 rice seedlings [2]) was 18% and the “total protein per (4th) leaf” value (IR-8 rice seedlings [2]) was “doubling”. The “% of control” value [3, 4] was 140 % of control, the Fresh weight [3, 4] was 16.8 and the “growth of in vitro cell cultures” value ([3]; tomato) was “significant increases in growth”.
